Measurements as given in patent publication US20220233512A1, “INHIBITING AN IMMUNE RESPONSE MEDIATED BY ONE OR MORE OF TLR2, RAGE, CCR5, CXCR4 AND CD4” (priority 2020, published 2022).

What was measured:
mu opiate receptor (MOR) = molecular target: T1, mu opiate receptor (MOR) (Rattus norvegicus, UniProt P33535); assay: MOR agonist activity using [35S]GTPgS binding assay in striatal membranes; assay type: biochemical; settings: Series C-2 table
T1 construct: from tissue; host or cells: striatum (membrane preparation)
Outline: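 Rat striatal membranes incubated 5 min at 30 °C in pH 7.5 HEPES buffer with 100 mM NaCl, 1 mM MgCl2 and 0.5 nM [35S]GTPgS, then 5 min with compound. Gαo-bound [35S]GTPgS isolated by immunoprecipitation and counted by liquid scintillation.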

[1] = system: human astrocyte TLR2 receptors; assay: Release of pro-inflammatory cytokines from primary human astrocytes; assay type: cell-based
Protocol: A primary astrocyte culture was prepared according to the provider (Lonza). The adherent astrocytes were trypsinized by 0.25% trypsin-EDTA, then collected and sub-cultured in 12-well plate (1.2 ml/well). When the cells were 80-85% confluent, cells were treated in an incubator under 5% CO2 with 100 fM, 10 pM or 1 nM Compound C0105 immediately followed by the addition of Ab42 ([…]), LPS (1 mg/ml), LTA-SA (1 mg/ml) and PGN-SA (10 mg/ml); i.e., simultaneously adding the insulting ligand and Compound C0105 to the cells. Vehicle groups were treated with 0.1% DMSO only. Incubation continued for 24 hours post addition. Culture medium was used as the blank (non-treat) and the levels of cytokines, TNF-a, IL-6 and IL-1b in 200 ml of culture medium were determined. Each well was sampled once.
Plates were washed 3 times with ice-cold 50 mM Tris HCl (pH 7.4) and incubated at 30° C. with 200 ml medium derived from the above-mentioned conditions. […] Plates were washed twice with 200 ml ice-cold Tris HCl, pH 7.4 and the residual FITC signals were determined by multimode plate reader, DTX880 (Beckman).
A primary astrocyte culture was prepared according to the provider (Lonza). […] Culture medium was used as the blank (non-treat) and the levels of cytokines, TNF-a, IL-6 and IL-1b in 200 ml of culture medium were determined. […]

FLNA = molecular target: T2, FLNA (Mus musculus, UniProt Q8BTM8); settings: 20-22 mg/kg in vivo; Ab42-infused, 3xTg AD and aged wild-type mice (untreated 5.3); Wang et al. 2017; cited from earlier work
T2 construct: pI of FLNA from the brains of naïve mice; from tissue; host or cells: mouse brain (in vivo treated animals)

[2] = molecular target: FLNA interactions with CXCR4, CD4 and CCR5 (Homo sapiens, UniProt P21333); assay: FLNA interactions with CXCR4, CD4 and CCR5 in lymphocytes (western blot); settings: 1 nM; lymphocytes of Ab42-treated young control subject and of AD patient

T1 sequence (P33535 whole entry): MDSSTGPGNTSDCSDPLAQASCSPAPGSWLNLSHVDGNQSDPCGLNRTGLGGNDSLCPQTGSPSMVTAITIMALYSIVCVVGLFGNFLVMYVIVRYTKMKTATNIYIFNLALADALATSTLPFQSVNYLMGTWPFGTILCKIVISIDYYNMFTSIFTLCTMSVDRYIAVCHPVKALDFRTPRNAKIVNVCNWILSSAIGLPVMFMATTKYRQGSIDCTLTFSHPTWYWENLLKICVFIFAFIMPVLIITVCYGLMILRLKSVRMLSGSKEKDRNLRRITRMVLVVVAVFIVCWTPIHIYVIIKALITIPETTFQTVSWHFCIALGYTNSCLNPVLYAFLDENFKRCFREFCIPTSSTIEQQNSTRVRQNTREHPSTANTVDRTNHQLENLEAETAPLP
T2 sequence (Q8BTM8 whole entry, the tested form may be a part): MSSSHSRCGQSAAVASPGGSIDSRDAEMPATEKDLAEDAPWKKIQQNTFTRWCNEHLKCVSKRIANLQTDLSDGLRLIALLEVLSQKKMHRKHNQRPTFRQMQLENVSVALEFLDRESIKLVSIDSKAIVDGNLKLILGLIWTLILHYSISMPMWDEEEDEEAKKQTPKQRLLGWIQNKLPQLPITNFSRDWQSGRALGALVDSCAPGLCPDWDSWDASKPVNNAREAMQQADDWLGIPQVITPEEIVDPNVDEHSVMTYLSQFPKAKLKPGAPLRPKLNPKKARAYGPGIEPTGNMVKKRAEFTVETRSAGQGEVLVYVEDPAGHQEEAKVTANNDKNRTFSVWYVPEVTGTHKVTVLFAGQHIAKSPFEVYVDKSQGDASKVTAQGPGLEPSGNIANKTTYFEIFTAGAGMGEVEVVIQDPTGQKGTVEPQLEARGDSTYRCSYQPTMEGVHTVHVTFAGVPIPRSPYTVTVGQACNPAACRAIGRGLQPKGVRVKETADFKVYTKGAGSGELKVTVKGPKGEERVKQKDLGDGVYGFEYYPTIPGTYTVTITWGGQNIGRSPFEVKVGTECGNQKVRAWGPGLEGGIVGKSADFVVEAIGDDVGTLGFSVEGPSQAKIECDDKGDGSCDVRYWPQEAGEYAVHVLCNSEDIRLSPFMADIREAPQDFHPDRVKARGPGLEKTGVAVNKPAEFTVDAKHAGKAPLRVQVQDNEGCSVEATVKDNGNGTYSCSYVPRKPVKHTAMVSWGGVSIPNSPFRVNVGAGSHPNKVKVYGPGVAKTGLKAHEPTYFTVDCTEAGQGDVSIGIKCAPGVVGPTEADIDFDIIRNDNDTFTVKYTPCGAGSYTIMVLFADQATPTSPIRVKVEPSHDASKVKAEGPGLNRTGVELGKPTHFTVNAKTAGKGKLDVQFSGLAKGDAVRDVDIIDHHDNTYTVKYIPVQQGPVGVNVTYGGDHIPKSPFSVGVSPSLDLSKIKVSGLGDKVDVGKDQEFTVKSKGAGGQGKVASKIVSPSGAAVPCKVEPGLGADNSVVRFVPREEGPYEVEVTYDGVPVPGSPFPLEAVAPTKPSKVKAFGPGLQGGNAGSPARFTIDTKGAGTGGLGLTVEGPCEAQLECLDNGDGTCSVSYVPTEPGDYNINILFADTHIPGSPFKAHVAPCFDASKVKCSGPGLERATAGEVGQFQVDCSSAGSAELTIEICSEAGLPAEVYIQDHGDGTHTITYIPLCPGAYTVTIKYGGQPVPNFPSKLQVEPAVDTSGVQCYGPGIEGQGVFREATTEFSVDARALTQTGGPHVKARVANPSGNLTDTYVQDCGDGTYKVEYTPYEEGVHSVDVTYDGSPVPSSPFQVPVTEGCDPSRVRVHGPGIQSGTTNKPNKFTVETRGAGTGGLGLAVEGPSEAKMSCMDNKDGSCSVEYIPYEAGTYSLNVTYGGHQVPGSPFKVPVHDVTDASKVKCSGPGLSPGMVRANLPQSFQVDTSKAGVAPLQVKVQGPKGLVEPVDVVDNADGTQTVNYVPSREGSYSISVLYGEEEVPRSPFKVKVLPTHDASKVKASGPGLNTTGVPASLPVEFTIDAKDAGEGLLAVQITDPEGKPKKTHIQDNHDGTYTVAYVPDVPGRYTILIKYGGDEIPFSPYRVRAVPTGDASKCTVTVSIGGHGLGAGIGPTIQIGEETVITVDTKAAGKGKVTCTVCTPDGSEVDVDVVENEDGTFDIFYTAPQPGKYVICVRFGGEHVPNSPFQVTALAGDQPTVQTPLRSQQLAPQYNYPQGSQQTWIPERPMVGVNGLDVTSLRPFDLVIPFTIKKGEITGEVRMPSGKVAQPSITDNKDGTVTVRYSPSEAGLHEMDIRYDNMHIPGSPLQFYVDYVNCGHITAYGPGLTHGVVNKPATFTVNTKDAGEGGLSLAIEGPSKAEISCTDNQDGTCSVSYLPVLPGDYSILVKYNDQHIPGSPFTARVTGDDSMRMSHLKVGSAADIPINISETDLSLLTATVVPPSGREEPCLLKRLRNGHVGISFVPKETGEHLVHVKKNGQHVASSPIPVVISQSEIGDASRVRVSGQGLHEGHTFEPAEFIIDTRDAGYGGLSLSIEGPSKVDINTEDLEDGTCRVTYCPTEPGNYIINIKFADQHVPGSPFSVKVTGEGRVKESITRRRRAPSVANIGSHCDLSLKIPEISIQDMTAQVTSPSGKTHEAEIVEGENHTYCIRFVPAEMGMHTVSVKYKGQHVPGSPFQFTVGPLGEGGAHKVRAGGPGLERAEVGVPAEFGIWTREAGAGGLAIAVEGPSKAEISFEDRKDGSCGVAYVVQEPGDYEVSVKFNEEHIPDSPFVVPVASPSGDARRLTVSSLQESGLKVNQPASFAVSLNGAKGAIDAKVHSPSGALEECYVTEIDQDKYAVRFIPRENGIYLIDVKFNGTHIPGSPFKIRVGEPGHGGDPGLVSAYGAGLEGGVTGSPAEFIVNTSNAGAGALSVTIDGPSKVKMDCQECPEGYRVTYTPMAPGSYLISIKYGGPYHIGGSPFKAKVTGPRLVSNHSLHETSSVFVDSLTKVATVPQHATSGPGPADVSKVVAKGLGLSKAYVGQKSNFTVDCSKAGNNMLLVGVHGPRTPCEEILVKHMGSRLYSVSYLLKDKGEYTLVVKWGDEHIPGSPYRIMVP

SMILES: CN1CCC2(CC1)NCC(=O)N2Cc1ccccc1 [Compound C0105M]
- MOR agonist activity ([35S]GTPgS binding to Gao) (mu opiate receptor (MOR); 0.1 μM compound as agonist): 198.1%
- MOR agonist activity ([35S]GTPgS binding to Gao) (mu opiate receptor (MOR); 1 μM + BFNA): 73.1%
- MOR agonist activity ([35S]GTPgS binding to Gao) (mu opiate receptor (MOR); 1 μM compound as agonist): 220.3%
- Ab42-induced inflammatory cytokine production (in words) ([1]; Ab42 exposure): nearly abolishes this cytokine production
- Release of the three pro-inflammatory cytokines (in words) ([1]; LTA-SA or PGN-SA insult, human astrocytes): substantially inhibited the release
- pI of FLNA from brain after treatment (FLNA): 5.9
- FLNA linkages with CXCR4, CD4 and CCR5 (in words) [2]: reduced these linkages
